Consider 38 sequences from the OligoGym collection.

Bases are written 5' to 3'; sugars and linkages follow in the same order, as letters with counts (s phosphorothioate, o phosphodiester; PS: all linkages phosphorothioate). The collection does not say whether C is 5-methylated. l = locked nucleic acid (LNA); d = 2'-deoxy (DNA)

The series concerns the target Tau. Briefly: rat primary cortical neurons, FLIPR, 25 uM ASO.
Take “ACCGAACTGCGAGGAGCAGC (sugars l3 d14 l3, PS)”: the calcium oscillation score is 0 % of control.

For the sequence “TTTATTTCCAAATTCACTTT (sugars lldllddddddddddlldll, PS)”, the calcium oscillation score is 106 % of control. On to “TTAATTCATAAATGACTATA (sugars l3 d14 l3, PS)”, for which the calcium oscillation score was 58.4 % of control. As for “AACTCATTTACCAATTATCT (sugars l4 d13 l3, PS)”, the figure is 67.3 % of control. As for “TTCATCACCAAGTCCCA (sugars l3 d12 l2, PS)”, the figure is 66.8 % of control; as for “CTTCCATCACTTCGAACTCC (sugars l3 d14 l3, PS)”, 27.1 % of control. In the case of “GCCTTACTTTCTACTCA (sugars l2 d13 l2, PS)”, the calcium oscillation score was 70.7 % of control.

With “ATATTGAACTCACCCAC (sugars l2 d11 l4, PS)”, the calcium oscillation score was 54.3 % of control. Consider “CTCTTGACAGTCACTGCTGA (sugars l3 d14 l3, PS)”, for which the calcium oscillation score was 29.4 % of control.

As to TCCTAATCCTGTGC (sugars l3 d8 l3, PS), the calcium oscillation score was 65 % of control. Take “TTAGCCCTAAAGTCCCAGGT (sugars l3 d14 l3, PS)”: the calcium oscillation score was 86.3 % of control. For “CCATTTTTATCATCACCT (sugars l3 d13 l2, PS)”, the calcium oscillation score is 63.8 % of control. In the case of “ACCTCCTGGTTTATGATGGA (sugars l3 d14 l3, PS)”, the calcium oscillation score is 0 % of control.

As for “AGGTTAAGTGATTAACCAAT (sugars l3 d14 l3, PS)”, the calcium oscillation score is 115 % of control. In the case of TGGATATAGTTAAGGC (sugars l2 d12 l2, PS), the calcium oscillation score is 115 % of control. Under “GTAACCAACTTTCATCT (sugars l2 d12 l3, PS)” stands 78.7 % of control.

As for GGCCTGATCACAAACC (sugars l3 d10 l3, PS), the calcium oscillation score is 132 % of control. As for “CTCTTATCTTTGTTTCTA (sugars l4 d12 l2, PS)”, the figure is 51.1 % of control; as for “GAACAGGAGAGCCATTTCCC (sugars l3 d14 l3, PS)”, 7.14 % of control.

With “CTTACACACCACACACACTC (sugars l1 d17 l2, PS)”, the calcium oscillation score was 88.5 % of control. For the sequence TGATAAAACATCCCTA (sugars l4 d8 l4, PS), the calcium oscillation score was 80.5 % of control. “AAAAGTCCATTCCCTCC (sugars l2 d12 l3, PS)”: the calcium oscillation score was 64 % of control. As for “AGCCTCTAGCCACATGGACC (sugars l3 d14 l3, PS)”, the figure is 16.1 % of control; as for “CTCCTAATTTTGCACTC (sugars l3 d11 l3, PS)”, 46.7 % of control. For the sequence “TACACCATCCAAGTCAA (sugars l3 d10 l4, PS)”, the calcium oscillation score is 97 % of control.

Regarding AACTAAATTTACCTCA (sugars l4 d8 l4, PS), the calcium oscillation score is 88.1 % of control. As for GTCGATGCTGCCGG (sugars l3 d8 l3, PS), the figure is 36.5 % of control; as for “TATTTCAACTCTTAGCA (sugars l4 d10 l3, PS)”, 59 % of control.

For CAGCGTGATCTTCCAT (sugars l3 d10 l3, PS), the calcium oscillation score was 13.4 % of control. For “GGGAGGCAGACACCTCGTCA (sugars l3 d14 l3, PS)”, the calcium oscillation score was 102 % of control. Under “CTTCTCCAGTATTTCTTC (sugars l2 d13 l3, PS)” stands 69.4 % of control; under CCATTAATTTAGCCAA (sugars l3 d9 l4, PS), 87.2 % of control; under GAACTATTGATAAA (sugars l3 d8 l3, PS), 85.7 % of control. As for “AACTCAAATCAATTCTCATT (sugars l4 d12 l4, PS)”, the figure is 73.2 % of control; as for ACTCAGTTCTCTATAAT (sugars l4 d9 l4, PS), 64.1 % of control.

On to “ACCACATTATCATCCATTC (sugars l2 d14 l3, PS)”, for which the calcium oscillation score was 51.9 % of control. Under TGTCGATGCTGCCGGT (sugars l3 d10 l3, PS) stands 34.5 % of control; under “CATCTCTCTAGACATCT (sugars l4 d11 l2, PS)”, 79.4 % of control.
